In patent US8163795B2, “Chroman derivatives, medicaments and use in therapy” (Marshall Edwards, Inc., priority 2004, dated 2012):

Legend:
[1] = tested on: MM200 melanoma cell line; experiment: HMC combination with topotecan (synergy); type: cell-based; details: Table 11, single agent
Experimental: (§1) IC50 values were determined for each cell line. Cells were seeded in 96-well plates at an appropriate cell density as determined from growth kinetics analysis and cultured for 5 days in the absence and presence of the test compounds. […] IC50 values were calculated from semi-log plots of % of control proliferation on the y-axis against log dose on the x-axis.
(§2) 3-D model analysis of the cytotoxic interaction between drug A and drug B enables the representation of predicted inhibitory effect of two drugs in combination in 3 dimensions to reveal actual regions of synergy or antagonism. […] Theoretical Additivity was calculated from the cytotoxicities of drug A and drug B as monotherapies using the following formula which assumes the drugs are mutually exclusive inhibitors: […]
HMC synergy with topotecan was assessed either in combination over 5 days exposure or in sequence (HMC→topotecan) against the MM200 melanoma cell line.

[2] = tested on: TNFα; experiment: Inhibition of TNFα in LPS-stimulated murine macrophages (RAW 264.7); type: cell-based, mouse; details: for Inhibition of TNFα, dose dependence: over the concentration ranges tested
Experimental: The mouse macrophage cell line RAW 264.7 was cultured in DMEM supplemented with FCS, 2 mM glutamine and 50 U/ml penicillin/streptomycin. Subconfluent cells were detached from the flask by gentle scraping and 24-well plates seeded at 5×10^5 cells per well and allowed to adhere for 1 hr. Cells were treated with either test agent (in 0.025% DMSO) or vehicle alone, 1 hr prior to the addition of 50 ng/ml LPS. After incubation for 16 hrs, culture media was collected and stored at −80° C. for TNFα measurement using an enzyme immunometric assay (Becton Dickinson).

[3] = tested on: Mel-RM melanoma cell line; experiment: HMC combination with gemcitabine (synergy); type: cell-based; details: Table 9, single agent
Experimental: (§3) IC50 values were determined for each cell line. Cells were seeded in 96-well plates at an appropriate cell density as determined from growth kinetics analysis and cultured for 5 days in the absence and presence of the test compounds. Cell proliferation was assessed after the addition of 20 μl of 3-4,5 dimethylthiazol-2,5-diphenyl tetrazolium bromide (MTT, 2.5 mg/ml in PBS, Sigma) for 3-4 hrs at 37° C. according to manufacturer's instructions. IC50 values were calculated from semi-log plots of % of control proliferation on the y-axis against log dose on the x-axis.
(§4) 3-D model analysis of the cytotoxic interaction between drug A and drug B enables the representation of predicted inhibitory effect of two drugs in combination in 3 dimensions to reveal actual regions of synergy or antagonism. The 3D synergy plots are based on a theory of “Theretical Additivity” (TA) as outlined by Kanzawa et al (Int. J. Cancer 71, 311-319 (1997)). Theoretical Additivity was calculated from the cytotoxicities of drug A and drug B as monotherapies using the following formula which assumes the drugs are mutually exclusive inhibitors: […]
(§5) The TA is calculated for each combination of drug concentrations and subtracted from the observed experimental effect for each combination to give a measurement of synergisitic action.
HMC synergy with gemcitabine was assessed either in combination over 5 days exposure or in sequence (HMC→gemcitabine) against the Mel-RM melanoma cell line. It was difficult to assess for synergisitic toxicity using a change in IC50 as a measure of synergy due to HMC toxicity as monotherapy (Table 9). […] Evidence of synergy using the HMC-gemcitabine combination was further assessed using the HMC→gemcitabine sequence (24 hr exposure to each compound in sequence) against the melanoma cell line Mel-RM. Using change in IC50 to assess for synergy it was noted that HMC at concentrations of 2 and 1 μM markedly chemosensitised the Mel-RM cells to gemcitabine by >1000 fold. HMC-induced chemosensitisation of Mel-RM cells to gemcitabine was confirmed using 3D analysis of the data.

[4] = tested on: MDA-MB-468 breast cancer cell line; experiment: Proliferation assay (MTT); type: cell-based; details: Homo sapiens, MDA-MB-468, Table 2.2; Breast MDA-MB-468; read-out: IC50
[5] = tested on: HTB-138 (Glioma); experiment: Proliferation assay (MTT); type: cell-based; details: Table 2.2; Glioma HTB-138
Experimental: (§6) All cultures were supplemented with 10% FCS (fetal calf serum CSL, Australia), penicillin (100 U/ml), streptomycin ([…]), L-glutamine (2 mM) and sodium bicarbonate (1.2 g/L), and cultured at 37° C. in a humidified atmosphere of 5% CO2. All cell lines were purchased from ATCC (Maryland, USA) except where noted.
as §3

[6] = tested on: HT-29 (Colorectal); experiment: Proliferation assay (MTT); type: cell-based; details: Homo sapiens, HT-29, Table 2.2; Colorectal HT-29
Experimental: as §6, §3

[7] = tested on: PC3 prostate cancer cell line; experiment: Proliferation assay (MTT); type: cell-based; details: Table 2.2
Experimental: as §6, §3

[8] = tested on: NCI-H460 (Lung); experiment: Proliferation assay (MTT); type: cell-based; details: Homo sapiens, NCI-H460, Table 2.2; NSC Lung NCI-H460
Experimental: as §6, §3

[9] = tested on: CCRF-CEM (Leukemic); experiment: Proliferation assay (MTT); type: cell-based; details: Homo sapiens, CCRF-CEM, Table 2.2; Leukaemia CCRF-CEM
Experimental: as §6, §3

[10] = tested on: CP70 ovarian cancer cell line; experiment: Proliferation assay (MTT); type: cell-based; details: Table 2.2 (further studies); Ovarian CP70; read-out: IC50
[11] = tested on: MM200 melanoma cell line; experiment: Proliferation assay (MTT); type: cell-based; details: Table 2.2; Melanoma MM200; read-out: IC50
[12] = tested on: HPAC (CRL-2119) pancreatic cancer cell line; experiment: Proliferation assay (MTT); type: cell-based, human; details: Homo sapiens, HPAC, Table 2.2; Pancreatic HPAC; read-out: IC50
[13] = tested on: PGE2; experiment: Eicosanoid synthesis in LPS-stimulated murine macrophages (RAW 264.7); type: cell-based, mouse; details: 10 μM; negative values indicate inhibition
Experimental: (§7) The mouse macrophage cell line RAW 264.7 was cultured in DMEM supplemented with foetal calf serum (FCS), 2 mM glutamine and 50 U/ml penicillin/streptomycin. Subconfluent cells were detached from the flask by gentle scraping and 24-well plates seeded at 5×10^5 cells per well and allowed to adhere for 1 hr. Cells were then treated either test compound at a concentration of 10 μM (in 0.025% DMSO) or vehicle alone, and incubated for 1 hr. LPS 50 ng/ml (LPS—Sigma-Aldrich) was then added. After incubation for 16 hrs, culture media was collected and stored at −80° C. for ecosanoid measurements using enzyme immunometric assays (PGE2 and TXB2—Cayman Chemical).
(§8) Table 16: Percentage change in eicosanoid synthesis after incubating test compound at 10 μM compared with incubation with vehicle alone.

[14] = tested on: TXB2; experiment: as above; type: cell-based, mouse; details: 10 μM; negative values indicate inhibition
Experimental: as §7, §8

[15] = tested on: Mel-RM melanoma cell line; experiment: HMC combination with doxorubicin (synergy); type: cell-based; details: Table 12, single agent
Experimental: as §1, §2
HMC synergy with doxorubicin was assessed either in combination over 5 days exposure or in sequence (HMC→doxorubicin) against the Mel-RM melanoma cell line.

[16] = tested on: 4405 melanoma cell line; experiment: HMC combination with paclitaxel (synergy); type: cell-based; details: Table 10; single agent, 24 hr exposure; read-out: IC50, 24 hr (monotherapy)
Experimental: as §3, §4, §5
HMC synergy with paclitaxel was assessed either in combination over 5 days exposure or in sequence (HMC→paclitaxel) against the 4405 melanoma cell line. It was difficult to assess for synergisitic toxicity using a change in IC50 as a measure of synergy due to HMC toxicity as monotherapy (Table 10). […] Evidence of synergy using the HMC-paclitaxel combination was further assessed using the HMC→paclitaxel sequence (24 hr exposure to each compound in sequence) against the melanoma cell line 4405. Using change in IC50 to assess for synergy it was noted that HMC at concentrations of 2 μM markedly chemosensitised the 4405 cells to paclitaxel by >1000 fold (Table 10). HMC-induced chemosensitisation of […] cells to paclitaxel was confirmed using 3D analysis of the data.

[17] = 120 h, 5 days exposure, read-out: IC50, Combined (monotherapy)
[18] = 24 hr exposure, read-out: IC50, 24 hr (monotherapy)
[19] = Concentration 10 μM, RAW 264.7, LPS 50 ng/ml, 16 hrs

IC50 [4] [µM]	IC50 [5] [µM]	IC50 [6] [µM]	IC50 [7] [µM]	IC50 [9] [µM]	IC50 [10] [µM]	IC50 [11] [µM]	IC50 [12] [µM]	Compound	Inhibition of TNFα ([2]; Concentration 0.001 μM)	Inhibition of TNFα ([2]; Concentration 0.1 μM)	Inhibition of TNFα ([2]; Concentration 1 μM)	Inhibition of TNFα [2, 19]	further results
								CC[C@@]1(O)C(=O)OCc2c1cc1n(c2=O)Cc2cc3c(CN(C)C)c(O)ccc3nc2-1 [Topotecan, topotecan, reference compound]					IC50 [1, 17]: 0.095 µM; IC50 [1, 18]: 2.22 µM
								COc1cc(O)cc(OC)c1C1c2ccc(O)cc2OCC1c1ccc(O)cc1 (stereo not shown) [Compound 7, 3-(4-hydroxyphenyl)-4-(2,6-dimethoxy-4-hydroxyphenyl)chroman-7-ol]	19.2	−1.4	−25.4	−26.2	Inhibition of TNFα, dose dependence [2]: inhibit TNFα in murine macrophages in a dose dependent manner
								Nc1ccn([C@@H]2O[C@H](CO)[C@@H](O)C2(F)F)c(=O)n1 [Gemcitabine, gemcitabine, reference compound]					IC50 [3, 17]: 0.00388 µM; IC50 [3, 18]: 0.00467 µM
56.6	53.5 ± 14	45 ± 4.7	32.5 ± 2.1	73 ± 51.6	> 100	93 ± 2.9	79 ± 56	Nc1cccc(C2c3ccc(O)cc3OCC2c2ccc(O)cc2)c1 (stereo not shown) [Compound 14, 3-(4-hydroxyphenyl)-4-(3-aminophenyl)chroman-7-ol]					IC50 [8]: 65 µM
28.7 ± 3.6	> 100	> 100	116 ± 57	92 ± 81.6	> 100	> 100	> 100	COc1ccc(C2COc3cc(OC)ccc3C2c2ccc(OC)cc2)cc1 (stereo not shown) [Compound 6, 3-(4-methoxyphenyl)-4-(4-methoxyphenyl)-7-methoxychroman]	1.0	−10.4	−13.0	−48.7	Inhibition of TNFα, dose dependence [2]: inhibit TNFα in murine macrophages in a dose dependent manner; Percentage change in PGE2 synthesis vs vehicle alone [13]: −37.7%; Percentage change in TXB2 synthesis vs vehicle alone [14]: −16.4%
								COc1cccc2c1C(=O)c1c(O)c3c(c(O)c1C2=O)C[C@@](O)(C(=O)CO)C[C@@H]3O[C@H]1C[C@H](N)[C@H](O)[C@H](C)O1 [Doxorubicin, doxorubicin, reference compound]					IC50 [15, 17]: 0.19 µM; IC50 [15, 18]: 0.1 µM
								CC(=O)O[C@H]1C(=O)[C@@]2(C)[C@H]([C@H](OC(=O)c3ccccc3)[C@]3(O)C[C@H](OC(=O)[C@H](O)[C@@H](NC(=O)c4ccccc4)c4ccccc4)C(C)=C1C3(C)C)[C@]1(OC(C)=O)CO[C@@H]1C[C@@H]2O [Paclitaxel, paclitaxel, reference compound]					IC50 [16]: 0.000584 µM
								COc1ccc(C2c3ccc(O)cc3OCC2c2ccc(OC)c(OC)c2)cc1 (stereo not shown) [Compound 4, 3-(3,4-dimethoxyphenyl)-4-(4-methoxyphenyl)chroman-7-ol]	−14.3	−6.3	−11.9	−6.1	Inhibition of TNFα ([2]; Concentration 0.01 μM): −11.3
1.9	3.77	59.4	4.2 ± 0.02	4.02	3 ± 1.2	7.34	24.4 ± 12	Oc1ccc(C2COc3cc(O)ccc3C2c2ccccc2)cc1 (stereo not shown) [Compound 2, 3-(4-hydroxyphenyl)-4-phenylchroman-7-ol]					IC50 [8]: 5.4 ± 2.1 µM; Percentage change in PGE2 synthesis vs vehicle alone [13]: −12.6%; Percentage change in TXB2 synthesis vs vehicle alone [14]: 16%
